Legend:
[1] = tested on: pristane-induced lupus model; assay: Pristane-induced lupus model; type: in vivo, mice; settings: 3 μg SC daily, interim data
Experimental: Four-week old female Balb/c mice received 0.5 ml IP injection of pristane (Sigma Aldrich). Eight weeks post pristane injection, all mice tested positive for anti-dsDNA antibody titers (FUJIFILM Wako Pure Chemical Corporation), indicating systemic disease onset. On Day 60, mice were randomized to treatment (n=12) (Compound 2, 3 μg SC daily) or control group (n=11), and treatment was started. Mice were monitored daily for cutaneous lupus symptoms by checking for the appearance of skin lesions.

[2] = tested on: MOG35-55-induced murine EAE model; assay: Escalation treatment paradigm in MOG35-55-induced murine EAE model (Example 8); type: in vivo, mice
Experimental: Compound 2 (0.03 mg/ml) was formulated with hydroxypropyl beta cyclodextrin (HPCD) 1:80 (Compound 2:HPCD) and stored at 4° C. until use. Natalizumab, an anti-α4β1 integrin antibody is a monoclonal antibody that is approved by U.S. Food and Drug Administration (FDA) for the treatment of relapsing forms of MS. […] Natalizumab was diluted in PBS to a final concentration of 15 mg/ml before dosing. DMF is a disease-modifying therapy (DMT) recommended for the treatment of active relapsing multiple sclerosis. DMF (1 g) was dissolved in 50 ml of 4% solution of METHOCEL© to give a 20 mg/ml solution of DMF. The solution was stored at 4° C. until use.
Experimental autoimmune (allergic) encephalomyelitis (EAE) is considered to be the best non-clinical model of multiple sclerosis (MS). Over 6,000 papers have been published in scientific journals on this model. EAE is characterized by immune responses against CNS tissue and can be induced in animals by immunizing them against proteins of the CNS. In the active EAE model, mice are immunized with MOG35-55 peptide emulsified in Complete Freund's Adjuvant (CFA) by subcutaneous injection at the tail base (100 μg of […] per mouse) under anesthesia. On the day of injection (Day 0) and two days later (Day 2), mice receive an intraperitoneal injection of pertussis toxin (PT) in PBS at 200 ng/mouse/dose (0.1 mL). Symptoms typically develop in mice 9-14 days after immunization (Day 0). Daily observation and scoring of mice start on Day 7 and continue until the end of the study. Table 5 (see Example 4 above) details the expected clinical symptoms and the scoring criteria used in this study.
This study was designed to evaluate the early sustained use of Compound 2 versus DMF in a treatment escalation paradigm (sustained use cohort), and Compound 2 versus natalizumab after DMF failure (escalation cohort). All animals in the escalation cohorts received 14 doses of DMF or Compound 2, or 3 doses of natalizumab, as per group assignment.
Probability of disease control: Disease control was defined as a clinical score of less than 2.5. Animals in the different treatment groups were monitored after the 3:1:1 randomization. A score of 2.5 was recorded as an event and analyzed by survival analysis in GraphPad Prism 9. Animals not reaching a clinical score of 2.5 by day 14, the end of the treatment period, were assigned a score of zero for the survival analysis.
Efficacy of Compound 2 versus DMF in early sustained use: Animals in the DMF group that reached a score of 2.5 were randomized 1:1:1, as per FIG. 5A. Animals randomized to continue DMF treatment were given the remainder of the 14 DMF doses. Animals from the first randomization that were treated with Compound 2 after disease onset continued treatment for a total of 14 doses. After the 14th dose, treatment was stopped and clinical score and overall survival were monitored.
Efficacy of Compound 2 versus natalizumab in a treatment escalation cohort: Animals in the DMF group that reached a score of 2.5 were randomized 1:1:1, as per FIG. 5A. Animals randomized to natalizumab were dosed 100 μg/mouse IV every 3 days for 3 total doses starting the same day a score of 2.5 was recorded. Animals randomized to Compound 2 were dosed with 3 μg/mouse SC QD for 14 total doses starting on the same day a score of 2.5 was recorded.
Overall survival: Death due to the disease was monitored in the early sustained use cohort as well as the escalation cohort. Death by disease (clinical score of 5) was recorded as an event “1,” death due to ulceration or for ex vivo analysis was recorded as “0.” Animals surviving until the end of the study were recorded “0” on day 27. Survival analysis was done in GraphPad Prism 9.

CD4+/Foxp3+ T-cells = assay: Foxp3 induction in human total PBMCs or sorted T-cells; type: cell-based; settings: 3 ng/ml; for percentage of CD4+/Foxp3+ T-cells: five days
Experimental: 2×10^5 Total PBMCs or sorted T-cells (CD3^+) were cultured in 96-well plates in the presence of ascending doses of Compound 2 ranging from 0 to 3 ng/ml for five days. On day 5, cells were washed and stained for CD3 and CD4 for 30 minutes on ice, then cells were washed with PBS and stained with viability dye to exclude dead cells. Stained cells were fixed/permeabilized and further stained for Foxp3. Finally, cells were washed and fixed for acquisition by Attune NXT flow cytometer. Data were analyzed by FlowJov10.

[3] = tested on: MOG35-55-induced murine EAE model; assay: MOG35-55-induced murine EAE model, Compound 2 versus Compound 8 (Example 12); type: in vivo, mice; settings: 3 μg/mouse/day SC, after ten days of treatment
Experimental: Mice were immunized with 100 μg MOG35-55 emulsified with CFA and pertussis toxin, as described in Example 4. At disease onset (clinical score 1), mice were randomized into two treatment groups, and received 3 μg/mouse/day SC of either Compound 2 or Compound 8.

Th17 (RORγt) cells = assay: Human PBMCs in Th17 polarizing environment, Foxp3 and RORγt expression; type: cell-based
Experimental: Total human PBMCs isolated from healthy human volunteers were cultured in vitro in a Thl7 polarizing environment as follows: • Day 0: 2×10^5 cells/well were incubated in a 96 round bottomed-well plate (final volume 200 μl) with (i) anti CD3/CD28 microbead for T-cell activation (1 bead/10 cells), (ii) 10 ng/ml IL-6, 2 ng/ml TGFβ and 10 ng/ml IL-23, and (iii) 10 μg/ml anti-IFNγ and 10 μg/ml anti-IL-4. • Day 4: Each well was split into two wells, and 100 μl of media containing the same cytokine/antibody cocktail used at day 0 was added to each well in the presence of ascending doses of Compound 2 (0, 0.1, 0.3, 1, and 3 ng/ml). • Day 9: Cells were washed and stained for surface staining (CD3, CD4), then viability dye to exclude dead cells. Intranuclear staining was performed after cell fixation and permeabilization for transcription factors Foxp3 and RORγt. Cells were washed and fixed for acquisition by Attune NXT flow cytometer. Data were analyzed by FlowJov10.

[4] = escalation cohort after DMF failure (score 2.5), by day 14 after switching

N[C@@H](CNC(=O)Cc1ccc(OCc2cccc3ccccc23)cc1)C(=O)O [Compound 2, (S)-2-Amino-3-(2-(4-(naphthalen-1-ylmethoxy)phenyl)acetamido)propanoic acid]
incidence of cutaneous lupus ([1]; after two weeks of treatment): 8%
onset of cutaneous symptoms compared to untreated control mice [1]: delayed by two days
disease course in early sustained use cohort ([2]; 14 doses, followed to end of study): better overall disease control during therapy (day 1 to 14) and after stopping therapy (day 14 to end of study)
mean clinical score after switching from DMF [2, 4]: 2.6 (SD=1.1)
median clinical score after switching from DMF [2, 4]: 2.5
animals that survived until day 27, escalation cohort ([2]; switched from DMF): 8 out of 9
overall survival, early sustained use cohort ([2]; to day 27): all animals treated with Compound 2 survived until day 27
animals that progressed to a disease score of 2.5 ([2]; treatment from disease onset (score 1), over the entire treatment period (14 days)): 5 of the 9
percentage of CD4+/Foxp3+ T-cells (CD4+/Foxp3+ T-cells; isolated T-cells (sorted)): 2.27%
percentage of CD4+/Foxp3+ T-cells (CD4+/Foxp3+ T-cells; total PBMC): 5.2%
increase of percentage of CD4+/Foxp3+ T-cells (CD4+/Foxp3+ T-cells; isolated T-cells (sorted)): 606%
increase of percentage of CD4+/Foxp3+ T-cells (CD4+/Foxp3+ T-cells; total PBMC): 171%
mean clinical score, comparison of the two groups [3]: no statistical difference
decrease in RORγt cells (Th17 (RORγt) cells): 80%
percentage of Th17, mean after treatment (Th17 (RORγt) cells): 1.1%

Source: patent publication US20230089267A1, “Compositions and Methods For Reducing Immune Intolerance and Treating Autoimmune Disorders” (Lapix Therapeutics, Inc., priority 2021, published 2023)
